Drawing on PubChem BioAssay (NCI), this text covers GI50 and TGI for twelve compounds.

SMILES strings stand for the structures.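 Cells were grown in 96-well plates and exposed to each compound for 48 hours at five concentrations; endpoints were interpolated linearly between bracketing concentrations, or set to the highest concentration if not reached. GI50 is the concentration that inhibits growth by half. TGI is the concentration that stops growth completely.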

Common to all, as to assay: NCI tumour cell line growth inhibition, 48 h
For experiment [1], the system named is CAKI-1 renal.
Experiment [2] has as its system OVCAR-8 ovarian.
Experiment [3] concerns ACHN renal.
The test system of experiment [4] is NCI-H460 lung.
Experiment [5] concerns NCI-H23 lung.
For experiment [6], the system named is HS 578T breast.
Experiment [7] concerns OVCAR-5 ovarian.
Experiment [8] concerns SW-620 colon.
Experiment [9] concerns MCF7 breast.
For experiment [10], the system named is 786-0 renal.
For experiment [11], the system named is OVCAR-4 ovarian.
Experiment [12] has as its system PC-3 prostate.
Experiment [13] has as its system DLD-1 colon.
Experiment [14] has as its system SNB-75 CNS.
Experiment [15] concerns SK-OV-3 ovarian.
In experiment [16] the test system is TK-10 renal.
Experiment [17] has as its system T-47D breast.

As to `Cc1c(CNc2ccc(C(=O)NC(CC(=O)O)C(=O)O)cc2)ccc2nc(N)nc(N)c12` (stereo not given), the GI50 in experiment [1] was 48.6 µM; in experiment [11], greater than 1000 µM; in [12] it was less than 0.01 µM. Also, the TGI in [1], in experiment [2], in [3], in [4], in [5] and in [6] was greater than 1000 µM each time. In addition, the TGI in experiment [7], in experiment [8], in experiment [9], in experiment [10], in [11] and in experiment [12] was greater than 1000 µM throughout.

As to `Cc1cccc(C(C)C)c1NC(=O)CC1Sc2ccccc2NC1=O` (stereo not given), the TGI in [1], in experiment [2], in [3], in [13], in experiment [4] and in [5] was greater than 100 µM throughout. The TGI in experiment [7], in [14], in experiment [15], in [8], in experiment [16] and in [11] was greater than 100 µM each time.

In the case of `CC(=O)Nc1ccc(-c2nc3ccccc3s2)cc1`, the TGI in experiment [1] was 53.8 µM; in [2] it was greater than 100 µM; in experiment [17], greater than 100 µM; in experiment [3], 92.3 µM; in [4] it was greater than 100 µM; in experiment [5] it was greater than 100 µM. Further, the TGI in [6] is greater than 100 µM; in experiment [14], 90.9 µM; in experiment [15], 59.5 µM; in [8], greater than 100 µM; in [9], greater than 100 µM; in [16], greater than 100 µM. Further, the values for the TGI in [10], in experiment [11] and in experiment [12] were 64.8 µM, greater than 100 µM and greater than 100 µM, respectively.

As to `CN1CCN(CN2C(=O)C3C4C=CC(C3C2=O)C2C(=O)N(CN3CCN(C)CC3)C(=O)C42)CC1` (stereo not given), the TGI in experiment [1] was greater than 100 µM; in experiment [2], greater than 100 µM; in [17], greater than 100 µM; in experiment [3], greater than 100 µM; in [4], greater than 93.6 µM; in [5] it was greater than 78.4 µM. Besides, the TGI in experiment [6] was greater than 100 µM; in experiment [7] it was greater than 100 µM; in [14] it was greater than 100 µM; in experiment [15], greater than 100 µM; in [8], 7.58 µM; in experiment [9], 72.8 µM. Besides, the TGI is greater than 100 µM in experiment [16], 97.7 µM in experiment [10], greater than 100 µM in experiment [11] and greater than 100 µM in experiment [12].

Consider `CC(C)=CCc1c(O)ccc2ccc(=O)oc12`, for which the TGI in [1] is greater than 100 µM; in experiment [2], greater than 100 µM; in [13], greater than 100 µM; in experiment [4], greater than 100 µM; in experiment [5], greater than 100 µM; in experiment [7], greater than 31.6 µM. Further, the TGI in [14], in experiment [15], in [8], in experiment [9] and in [11] was greater than 100 µM in each case.

For the compound `COc1cccc2c1C(=O)c1c(O)c3c(c(O)c1C2=O)C[C@@](O)(C(=O)CO)C[C@@H]3OC1CC(N)C(OC)C(C)O1` (stereo not given in full), the TGI in [2] was determined as 1.21 µM; in experiment [17], 1.73 µM; in [3], 0.765 µM; in experiment [13], 3.37 µM; in [4] it was 0.217 µM; in [5], 0.457 µM. Further, the TGI in [6] stood at 1.14 µM; in experiment [7], 1.34 µM; in [14], 0.346 µM; in [15], 4.41 µM; in experiment [8], 4.05 µM; in experiment [9], 0.41 µM. The TGI in experiment [16] is 36.6 µM; in experiment [10], 18.2 µM; in experiment [11], 9.67 µM; in [12], 1.64 µM.

Consider `CCOC(=O)c1csc(NC(=O)CN2CCN(C)CC2)n1`, for which the TGI in [1], in [2], in experiment [17], in experiment [3], in experiment [4] and in [5] was greater than 100 µM each time. Also, the TGI in experiment [7], in experiment [14], in experiment [15], in experiment [8], in experiment [9] and in experiment [16] was greater than 100 µM throughout. The TGI in [11] and in experiment [12] was greater than 100 µM in each case.

For `CC#C[P+](c1ccccc1)(c1ccccc1)c1ccccc1`, the TGI worked out at 11.3 µM in experiment [1]; 12 µM in [2]; 21.8 µM in [3]; 16.7 µM in experiment [13]; 19.2 µM in experiment [4]; 7.03 µM in [5]. In addition, the TGI in [7] worked out at 22 µM; in experiment [14], 12 µM; in experiment [15] it was 38.5 µM; in experiment [16], 15.7 µM; in experiment [10] it was 10.7 µM; in [11], 20.1 µM.

`COc1cc2c3c(c4cc(OC)c(OC)cc4c2cc1OC)C(=O)C1CCC(=O)N1C3` (stereo not given): the TGI in experiment [1] was 38.9 µM; in [2], greater than 100 µM; in experiment [17], greater than 100 µM; in experiment [3], 59.7 µM; in [4], greater than 100 µM; in experiment [5] it was greater than 100 µM. Besides, the TGI is greater than 100 µM in experiment [6]; 32.2 µM in experiment [14]; 61.1 µM in experiment [15]; greater than 100 µM in experiment [8]; greater than 100 µM in experiment [9]; 54.5 µM in experiment [16]. Further, the TGI in [11] and in experiment [12] was greater than 100 µM each time.

Consider `CCCC(O)C(NC(=O)CCl)C(=O)O` (stereo not given), for which the TGI in experiment [1], in [2], in experiment [13], in [4], in experiment [5] and in [7] was greater than 100 µM each time. The TGI in [14], in experiment [15], in experiment [8], in experiment [9] and in experiment [11] was greater than 100 µM each time.

With `COc1cc2c(cc1O)C1C(O)C(O)C=C3CCN(C2)C31` (stereo not given), the TGI stood at 10.1 µM in [1]; 9.14 µM in [2]; 7.87 µM in experiment [3]; 14.2 µM in experiment [13]; 10.1 µM in experiment [4]; 6.39 µM in [5]. Besides, the TGI in [7] was determined as 24.6 µM; in [14], 9.69 µM; in experiment [15], 22.9 µM; in experiment [8], 12.6 µM; in experiment [16] it was 11.7 µM; in experiment [10], 11.9 µM. For the same compound, in experiment [11], the TGI was 4.84 µM.

With `NCCCNCCCCNCCCN`, the TGI was 11.6 µM in experiment [1]; greater than 100 µM in [2]; 5.91 µM in experiment [17]; 9.22 µM in [3]; greater than 100 µM in experiment [4]; greater than 100 µM in [5]. Besides, the TGI in experiment [6] is 98 µM; in experiment [7], greater than 100 µM; in experiment [14], greater than 100 µM; in experiment [15] it was greater than 53.9 µM; in experiment [8] it was 14 µM; in experiment [9], 13.1 µM. The TGI is 18.9 µM in [16], 2.79 µM in experiment [10], greater than 21.8 µM in experiment [11] and greater than 100 µM in [12].
